# Marks after values point to notes of the source that are not given here.
# Assays:
# [1] = system: Phenion® Full-Thickness (FT) Skin Model; assay: Lipidomic profile of skin model after topical treatment (LC-MS); format: cell-based, human
# [2] = MVL*H2O solubility in water (equilibrium DS content); format: physicochemical; conditions: calculated to purity 100
# Description: Solubility is one property to characterize a crystalline compound. Crystallization is possible only above solubility concentration in supersaturated syrups. Solubility determines minimal DS concentration for the crystallization at given temperatures. The solubility is determined by standard methods like analyzing the equilibrium concentration from crystal suspension.
# Equilibrium DS contents were measured and calculated between 0-20° C. range (Table 14).
# [3] = system: female Caucasian subjects with dry skin; assay: Skin transepidermal water loss (TEWL) after topical cream application (skin barrier function); format: in vivo, human; conditions: for Δ TEWL MVL (MVL cream zone − placebo cream zone): normalized to control and placebo, 1% MVL cream pH 5.5; for Δ TEWL MVL (Dx-D0): normalized to control, placebo and baseline D0
# Description: Mevalonolactone was obtained and purified as described herein and formulated in a standard cosmetic base, at 1% of total composition by weight, resulting in cosmetic a composition (such as but not limited to a cosmetic cream). […] The base cream formula can be any formula well known to one skilled in the art.
# Two separated studies were performed. Study 1 consisted of measuring the skin transepidermal water loss after topical application of the cosmetic creams (a cream with 1% MVL of total composition by weight called “MVL cream” and the control cream which was the same cream without MVL called “placebo”) formulated at pH=5.5, the skin physiological pH.
# The cosmetic formulations comprising MVL as the active ingredient and the placebo treatment were applied to 6 female Caucasian subjects with dry skin (electrical capacitance<50 A.U.) by topical application.
# For 2 weeks, each subject applied the MVL containing formulation and placebo formulation according to randomization. twice a day (in the morning and in the evening), under normal conditions of use (on clean skin, by slight massage until complete penetration), on delimited zones on their forearms.
# Evaluation of the efficacy of the treatment was conducted by measuring the evolution of the transepidermal water loss of the skin induced by the cosmetic compositions on the skin. Water loss of the skin was determined by measurement of Trans Epidermal Water Loss (T.E.W.L. g/m^2/h) which is a non-invasive method to assess the integrity of the stratum corneum barrier function, by quantifying the water exchanges between the skin and the environment (Loden M. et al., 1992, British J of Dermatol 1992; 126: 137-141). Damage of the stratum corneum results in an increase in the T.E.W.L., leading to a more pervious skin. This method enables to assess and compare the protective effect of cosmetic investigational compositions on the cutaneous barrier between themselves, after repeated applications. and in comparison, with a control area (non-treated) and with values obtained before any products application.
# In this study, the TEWL (g/m^2/h) was assessed at 5 different time points (Day 0 (baseline before product application). […]
# [4] = system: reconstructed human epidermis (RHE); assay: Caffeine diffusion test ([14C]-caffeine diffusion, barrier function); format: cell-based; conditions: for Barrier function (% control) / [14C]-caffeine diffusion, % control / [14C]-caffeine diffusion, Mean (cpm): systemic, 7 days
# Description: A test referred to as “caffeine diffusion test” was performed, which consists of the measurement of the effect of compounds mevalonolactone (MVL) on the skin barrier reinforcement. It is one method to measure skin barrier function (strength) as when the skin barrier has been strengthened, the amount of penetrating tracer molecules decreases (i.e. if skin is damaged more, the easier the tracer penetrates the skin). In this study, the effect of mevalonolactone, was assessed on [^14C]-caffeine diffusion through reconstructed human epidermis (RHE) under basal condition, in order to evaluate the skin barrier function. Caffeine diffusion is inversely proportional to barrier function. RHE (RHE, 0-day-old, Bioalternatives reference: EPI-Ba, batch n° 01015-515) were cultured under the following conditions: 37° C., 5% CO2, and the culture media was the Bioaltematives maintenance medium. The tested MVL concentration were 0.001%, 0.005% and 0.01% by weight of assay medium, in systemic way (added to the culture media).
# RHE at day 0 were placed at the air/liquid interface in culture medium containing or not (control) the test compounds, their association or the reference (vitamin C at 200 μg/ml) (systemic application). RHE were then, incubated for 7 days with treatment renewals at day 3 and day 5. All experimental conditions were performed in n=3.
# At the end of incubation (D7), radioactive caffeine ([^14C]-caffeine) was applied onto the surface of each epidermis. The radioactivity contained in subnatants was measured by liquid scintillation according to the following kinetic: 30 minutes, 1 and 2 hours.
# Raw data were analyzed using Microsoft Excel® software and GraphPad PRISM® software. The inter-group comparisons were performed by an unpaired Student's t-test. The statistical analysis can be interpreted if n≥5, however for n<5 the statistical values are for information only. Formulas used in this report:
# Standard error of the mean: sem=Sd/√n; Barrier function: […]
# [5] = 13% MVL solution in DPBS, 20 μl topical, 24 hours, vs control without MVL
# [6] = MVL treated skin tissue, 24 hours
compound,measurement,setting,value
"C[C@@](O)(CCO)CC(=O)O [MVA, (3R)-3,5-Dihydroxy-3-methylpentanoic acid]",cholesterol amount (in words),[1]; MVA treated skin model,stay stable
same,cholesterol/cholesterol sulfate ratio (in words),"[1]; topical MVA, exact same test condition as Example 26",decrease
same,MVA treatment effect: Ratio Cholesterol/Cholesterol sulfate,"[1]; topical MVA, exact same test condition as Example 26, p = 0.088",−
"CC1(O)CCOC(=O)C1.O (stereo not shown) [MVL* H2O, Mevalonolactone monohydrate]",solubility,[2]; 0 °C,43.9 % DS
same,solubility,[2]; 4.8 °C,52.3 % DS
same,solubility,[2]; 9.8 °C,61.2 % DS
same,solubility,[2]; 15.0 °C,70.6 % DS
same,solubility,[2]; 20.0 °C,79.7 % DS
"C[C@@]1(O)CCOC(=O)C1 [MVL, (R)-3-Hydroxy-3-methyl-δ-valerolactone]",Δ TEWL MVL (MVL cream zone − placebo cream zone),[3]; D0,2.06 g/m²/h
same,Δ TEWL MVL (Dx-D0),[3]; D1-D0,−0.27
same,Δ TEWL MVL (MVL cream zone − placebo cream zone),[3]; D1,1.79 g/m²/h
same,Δ TEWL MVL (Dx-D0),[3]; D3-D0,−0.74
same,Δ TEWL MVL (MVL cream zone − placebo cream zone),[3]; D3,1.32 g/m²/h
same,Δ TEWL MVL (Dx-D0),[3]; D7-D0,−1.11
same,Δ TEWL MVL (MVL cream zone − placebo cream zone),[3]; D7,0.95 g/m²/h
same,Δ TEWL MVL (Dx-D0),[3]; D15-D0,−1.04
same,Δ TEWL MVL (MVL cream zone − placebo cream zone),[3]; D15,1.02 g/m²/h
same,skin trans epidermal water loss (in words),"[3]; topically applied, after 2 weeks of repeated application",decreases the skin trans epidermal water loss
same,Barrier function (% control),"[4]; 0.001%, 30 min",128 % control
same,"[14C]-caffeine diffusion, % control","[4]; 0.001%, 30 min",77 % control
same,"[14C]-caffeine diffusion, Mean (cpm)","[4]; 0.001%, 30 min",14907 cpm
same,Barrier function (% control),"[4]; 0.001%, 1 hour",106 % control
same,"[14C]-caffeine diffusion, % control","[4]; 0.001%, 1 hour",94 % control
same,"[14C]-caffeine diffusion, Mean (cpm)","[4]; 0.001%, 1 hour",48423 cpm
same,Barrier function (% control),"[4]; 0.001%, 2 hours",99 % control
same,"[14C]-caffeine diffusion, % control","[4]; 0.001%, 2 hours",101 % control
same,"[14C]-caffeine diffusion, Mean (cpm)","[4]; 0.001%, 2 hours",117165 cpm
same,Barrier function (% control),"[4]; 0.005%, 30 min",113 % control
same,"[14C]-caffeine diffusion, % control","[4]; 0.005%, 30 min",87 % control
same,"[14C]-caffeine diffusion, Mean (cpm)","[4]; 0.005%, 30 min",16927 cpm
same,Barrier function (% control),"[4]; 0.005%, 1 hour",93 % control
same,"[14C]-caffeine diffusion, % control","[4]; 0.005%, 1 hour",107 % control
same,"[14C]-caffeine diffusion, Mean (cpm)","[4]; 0.005%, 1 hour",55034 cpm
same,Barrier function (% control),"[4]; 0.005%, 2 hours",95 % control
same,"[14C]-caffeine diffusion, % control","[4]; 0.005%, 2 hours",106 % control
same,"[14C]-caffeine diffusion, Mean (cpm)","[4]; 0.005%, 2 hours",122324 cpm
same,Barrier function (% control),"[4]; 0.01%, 30 min",97 % control
same,"[14C]-caffeine diffusion, % control","[4]; 0.01%, 30 min",102 % control
same,"[14C]-caffeine diffusion, Mean (cpm)","[4]; 0.01%, 30 min",19700 cpm
same,Barrier function (% control),"[4]; 0.01%, 1 hour",96 % control
same,"[14C]-caffeine diffusion, % control","[4]; 0.01%, 1 hour",104 % control
same,"[14C]-caffeine diffusion, Mean (cpm)","[4]; 0.01%, 1 hour",53545 cpm
same,Barrier function (% control),"[4]; 0.01%, 2 hours",99 % control
same,"[14C]-caffeine diffusion, % control","[4]; 0.01%, 2 hours",101 % control
same,"[14C]-caffeine diffusion, Mean (cpm)","[4]; 0.01%, 2 hours",116509 cpm
same,MVL treatment effect: CE-Cholesterol Esters,[1]; [5],+
same,MVL treatment effect: CL-CardioLipin*,[1]; [5],−
same,MVL treatment effect: DAG-Diacylglycerol,[1]; [5],−
same,MVL treatment effect: HexCer-Hexosylceramide*,[1]; [5],+
same,MVL treatment effect: LPE*,[1]; [5],−
same,MVL treatment effect: LPE-0,[1]; [5],−
same,MVL treatment effect: LPG-lyso-PG,[1]; [5],−
same,MVL treatment effect: PA-Phosphatidate (PA and LPA),[1]; [5],+
same,MVL treatment effect: PC Phosphatidylcholine (PC 15:1;0_16:0;0*),[1]; [5],+
same,"MVL treatment effect: PC-O- Phosphatidylcholine-ether (PC-O 16:1;0/18:2;0, plasmalogen)",[1]; [5],+
same,"MVL treatment effect: PE (species listed, *)",[1]; [5],−
same,MVL treatment effect: PE O-16:1;0/18:1;0*,[1]; [5],−
same,MVL treatment effect: PI-Phosphatidylinositol,[1]; [5],−
same,"MVL treatment effect: Phosphatidylglycerol (PG species listed, *)",[1]; [5],−
same,MVL treatment effect: TAG-Triacylglycerol (TAG 47:2;0),[1]; [5],+
same,Cholesterol level (in words),[1]; [6],unchanged
same,PG/CL versus control samples (in words),[1]; [6],significant decrease
same,ceramides level (in words),[1]; [6],unchanged
same,cholesterol esters (CE) versus control samples (in words),[1]; [6],significant increase
same,diacylglycerol (DAG) versus control samples (in words),[1]; [6],significant decrease
same,hexosylceramide (HexCer) versus control samples (in words),[1]; [6],significant increase
same,phosphatidate (PA) versus control samples (in words),[1]; [6],significant increase
same,phosphatidylcholine-ether (PC-O) versus control samples (in words),[1]; [6],significant increase
same,phosphatidylcholines (PC) versus control samples (in words),[1]; [6],significant increase
same,"phosphatidylethanolamine-ethers (LPE, LPE-O, PE-O) versus control samples (in words)",[1]; [6],significant decrease
same,phosphatidylinositol versus control samples (in words),[1]; [6],significant decrease
same,phosphatidylserine (PS) level (in words),[1]; [6],unchanged
same,ratio cholesterol/chol sulfate (in words),[1]; [6],unchanged
same,sphingomyelin (SM) level (in words),[1]; [6],unchanged
same,triacylglycerol (TAG) versus control samples (in words),[1]; [6],significant increase
"O=C1O[C@H]([C@@H](O)CO)C(O)=C1O [Vitamin C, reference compound]",caffeine diffusion through RHE (in words),"[4]; 200 μg/ml, systemic treatment",decreased significantly
same,Barrier function (% control),"[4]; 200 microg/ml, 30 min",171** % control
same,"[14C]-caffeine diffusion, % control","[4]; 200 microg/ml, 30 min",58 % control
same,"[14C]-caffeine diffusion, Mean (cpm)","[4]; 200 microg/ml, 30 min",11133 cpm
same,Barrier function (% control),"[4]; 200 microg/ml, 1 hour",148** % control
same,"[14C]-caffeine diffusion, % control","[4]; 200 microg/ml, 1 hour",68 % control
same,"[14C]-caffeine diffusion, Mean (cpm)","[4]; 200 microg/ml, 1 hour",34839 cpm
same,Barrier function (% control),"[4]; 200 microg/ml, 2 hours",128** % control
same,"[14C]-caffeine diffusion, % control","[4]; 200 microg/ml, 2 hours",79 % control
same,"[14C]-caffeine diffusion, Mean (cpm)","[4]; 200 microg/ml, 2 hours",90717 cpm
